According to ChEMBL document CHEMBL4420061, “Compositions and methods of inhibiting retinal degeneration” (2013):
Activity calls are given as the source filed them. The calls are words filed in the database; no cut-off is given here.

Columns and labels:
Rattus norvegicus [1] = assay: Protection against light-induced retinal degeneration in Sprague-Dawley rat assessed as photoreceptor levels in central and superior retina at 50 mg/kg, ip dosed 0.5 hrs before 6 hrs light exposure relative to control; format: functional
Rattus norvegicus [2] = assay: (§1) Inhibition of rhodopsin regeneration in overnight dark-adaptated Sprague-Dawley rat assessed as effect on rhodopsin recovery by measuring rhodopsin content at 50 mg/kg, ip followed by exposure to room light for 2 hrs and measured 2.5 hrs after photo-bleach by spectrophotometry; format: functional, organism-based
Rattus norvegicus [3] = assay: as §1, with “45 mins” for “2.5 hrs”, “spectrophotometry (reference value: 100%)” for “spectrophotometry”; format: functional; set-up: scale not given: the % may be the effect or the level left
Rattus norvegicus [4] = assay: (§2) Protection against light-induced retinal degeneration in Sprague-Dawley rat assessed as suppression of light-induced retinal function loss by measuring Rod-a and b-wave responses at 50 mg/kg, ip dosed 0.5 hrs before 6 hrs light exposure and measured 7 days after light-exposure by electroretinography; format: functional, organism-based
Mus musculus [5] = assay: Inhibition of rhodopsin regeneration in completely light-adapted mouse BALB/c mouse assessed as effect on rhodopsin content at 10% dosed to eyes via eye drop followed by mouse moving to dark for 1 hr by spectrophotometry; format: functional, organism-based
Rattus norvegicus [6] = assay: as §2, with “preservation of cone function” for “Rod-a and b-wave responses”, “16 to 24” for “0.5”; format: functional, organism-based
Rattus norvegicus [7] = assay: as §2, with “16 to 24” for “0.5”; format: functional, organism-based
[8] = Drug level in […] in anesthetized baboon assessed per mg wet weight at 10 mg/ml dosed as two drops for every 15 minutes for 1.75 hrs by mass spectrometry; format: ADME, organism-based, Papio; conditions: in vivo, topical_or_ocular
[9] = biological target: T1, Retinoid isomerohydrolase (Rattus norvegicus) (UniProt O70276); assay: Inhibition of RPE65 in rat RPE microsomes assessed as reduction in isomero-hydrolase activity by measuring 11-cis-retinol generation at 1 mM using all-trans-[3H]-retinol by HPLC analysis
T1 sequence (whole entry): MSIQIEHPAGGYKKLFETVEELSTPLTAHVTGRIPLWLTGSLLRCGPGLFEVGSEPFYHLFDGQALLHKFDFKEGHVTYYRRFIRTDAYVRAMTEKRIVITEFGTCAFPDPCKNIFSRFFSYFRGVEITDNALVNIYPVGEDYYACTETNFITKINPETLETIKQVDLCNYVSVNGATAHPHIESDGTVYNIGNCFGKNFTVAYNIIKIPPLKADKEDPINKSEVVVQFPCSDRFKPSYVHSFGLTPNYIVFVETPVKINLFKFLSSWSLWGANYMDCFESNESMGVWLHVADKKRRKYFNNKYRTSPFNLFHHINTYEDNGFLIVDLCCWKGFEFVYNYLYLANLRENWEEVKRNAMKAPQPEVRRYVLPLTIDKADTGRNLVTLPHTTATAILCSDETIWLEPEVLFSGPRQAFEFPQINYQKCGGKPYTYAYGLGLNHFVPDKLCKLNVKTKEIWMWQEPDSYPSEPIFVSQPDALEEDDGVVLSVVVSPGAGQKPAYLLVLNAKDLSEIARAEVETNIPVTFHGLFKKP

Mus musculus [10] = assay: Protection against light-induced retinal degeneration in BALB/c mouse assessed as suppression of light-induced retinal rod function loss at 10% topical application dosed 0.5 hrs before 6 hrs light exposure and measured 5 days after light-exposure by electroretinography; format: functional, organism-based
Rattus norvegicus [11] = assay: as §2, with “up to 12” for “0.5”; format: functional, organism-based
Rattus norvegicus [12] = assay: Effect on cone function in Sprague-Dawley rat at 50 mg/kg, ip under steady rod-suppressing background illumination 60 mins post compound dosing by single- and flicker-flash ERG recordings based assay; format: functional, organism-based
Mus musculus [13] = assay: Inhibition of rhodopsin regeneration in completely light-adapted mouse BALB/c mouse assessed as effect on rhodopsin content at 10% dosed to eyes via eye drop for 2 times at 3 and 0 hrs before dark adaptation for 1 hr by spectrophotometry; format: functional, organism-based
Rattus norvegicus [14] = assay: Protection against light-induced retinal degeneration in Sprague-Dawley rat assessed as suppression of light-induced retinal structure loss at 50 mg/kg, ip dosed 0.5 hrs after 6 hrs light exposure and measured 7 days after light-exposure by electroretinography; format: functional, organism-based
Mus musculus [15] = assay: Inhibition of rhodopsin regeneration in completely light-adapted mouse BALB/c mouse assessed as effect on rhodopsin content at 10% dosed to eyes via eye drop for 3 times at 6, 3 and 0 hrs before dark adaptation for 1 hr by spectrophotometry; format: functional, organism-based
Rattus norvegicus [16] = assay: Protection against light-induced retinal degeneration in Sprague-Dawley rat assessed as suppression of light-induced retinal function loss by measuring Rod-a and b-wave responses at 50 mg/kg, ip dosed 0.5 hrs after 6 hrs light exposure and measured 7 days after light-exposure by electroretinography; format: functional, organism-based
[17] = biological target: T1, Retinoid isomerohydrolase (Rattus norvegicus); assay: Inhibition of RPE65 in rat RPE microsomes assessed as reduction in isomero-hydrolase activity by measuring 11-cis-retinol generation using all-trans-[3H]-retinol by HPLC analysis
[18] = Drug level in posterior eye cup of completely light-adapted mouse BALB/c mouse at 10% dosed to eyes via eye drop for 3 times at 6, 3 and 0 hrs before dark adaptation for 1 hr by mass spectrometry; format: ADME, organism-based; conditions: in vivo, topical_or_ocular
Rattus norvegicus [19] = assay: Protection against light-induced retinal degeneration in Sprague-Dawley rat assessed as suppression of light-induced retinal structure loss at 50 mg/kg, ip dosed 16 to 24 hrs before 6 hrs light exposure and measured 7 days after light-exposure by electroretinography; format: functional, organism-based
Mus musculus [20] = species on record: Mus musculus; assay: Inhibition of retinal RDH activity in mouse retinal microsomes assessed as effect on NADPH-dependent reduction of all-trans-retinal; conditions: Retina
[21] = biological target: T2, Lecithin retinol acyltransferase (Rattus norvegicus) (UniProt Q9JI61); assay: Inhibition of LRAT in rat RPE microsomes assessed as reduction in retinyl-ester at 1 mM using all-trans-[3H]-retinol by HPLC analysis
T2 sequence (whole entry): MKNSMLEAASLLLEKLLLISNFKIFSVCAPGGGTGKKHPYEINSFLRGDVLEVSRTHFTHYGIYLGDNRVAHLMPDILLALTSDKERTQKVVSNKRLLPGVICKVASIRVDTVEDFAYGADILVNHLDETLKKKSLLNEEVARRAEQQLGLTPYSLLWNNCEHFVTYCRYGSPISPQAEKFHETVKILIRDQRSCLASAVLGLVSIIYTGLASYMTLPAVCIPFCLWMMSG

Rattus norvegicus [22] = assay: Protection against light-induced retinal degeneration in Sprague-Dawley rat assessed as suppression of light-induced retinal structure loss at 50 mg/kg, ip dosed up to 12 hrs before 6 hrs light exposure and measured 7 days after light-exposure by electroretinography; format: functional, organism-based
Baboon = assay: Inhibition of rhodopsin regeneration in anesthetized baboon assessed as rhodopsin regeneration by measuring rhodopsin content in eye at 10 mg/ml dosed as two drops for every 15 minutes for 1.75 hrs by spectrophotometry (reference value: 100%); format: functional, Papio; set-up: scale not given: the % may be the effect or the level left
Rattus norvegicus [23] = assay: (§3) Protection against light-induced retinal degeneration in Sprague-Dawley rat assessed as suppression of light-induced retinal function loss by measuring preservation of cone function at 50 mg/kg, ip dosed after 6 hrs light exposure and measured 7 days after light-exposure by electroretinography; format: functional, organism-based
Rattus norvegicus [24] = assay: Inhibition of rhodopsin regeneration in overnight dark-adaptated Sprague-Dawley rat assessed as effect on rhodopsin recovery by measuring rhodopsin content at 50 mg/kg, ip followed by exposure to room light for 2 hrs and measured 3 hrs after photo-bleach by spectrophotometry (reference value: 100%); format: functional; set-up: scale not given: the % may be the effect or the level left
Rattus norvegicus [25] = assay: Protection against light-induced retinal degeneration in Sprague-Dawley rat assessed as suppression of light-induced retinal structure loss at 50 mg/kg, ip dosed 0.5 hrs before 6 hrs light exposure and measured 7 days after light-exposure by electroretinography; format: functional, organism-based
Rattus norvegicus [26] = assay: as §3, with “dosed 0.5 to 12 hrs before” for “dosed after”; format: functional, organism-based
Rattus norvegicus [27] = assay: Protection against light-induced retinal degeneration in overnight dark-adaptated Sprague-Dawley rat assessed as protection of retinal rod function by measuring effect on A-waves at 50 mg/kg, ip dosed 30 mins prior to exposure to 4 log cd.s/m2 test flash by electroretinography relative to control; format: functional
Mus musculus [28] = assay: Inhibition of rhodopsin regeneration in completely light-adapted mouse BALB/c mouse assessed as rhodopsin recovery level by measuring effect on rhodopsin content at 5% dosed to eyes via eye drop before dark adaptation for 1 hr by spectrophotometry (reference value: 78.83%); format: functional; set-up: scale not given: the % may be the effect or the level left

inhibition [17]	Compound	Activity (Rattus norvegicus [1])	inhibition (Rattus norvegicus [2])	Activity (Rattus norvegicus [4])	Activity (Rattus norvegicus [6])	Activity (Rattus norvegicus [14])	Activity (Rattus norvegicus [16])	Activity (Rattus norvegicus [23])	Activity (Rattus norvegicus [25])	Activity (Rattus norvegicus [26])	further results
–	Cc1ccc(/C=[N+](\[O-])C(C)(C)C)cc1	Active	Active	–	–	–	–	–	–	–	–
Dose-dependent effect	CC(C)(C)/[N+]([O-])=C/c1ccccc1	90%	Active	Active	inactive	inactive	inactive	inactive	Active	Active	Activity (Rattus norvegicus [3]): 0%; inhibition (Mus musculus [5]): Active; Activity (Rattus norvegicus [7]): inactive; Drug uptake [8]: 23.5 to 24.2 ng; inhibition [9]: 100%; Activity (Mus musculus [10]): Active; Activity (Rattus norvegicus [11]): Active; Activity (Rattus norvegicus [12]): inactive; inhibition (Mus musculus [13]): Active; inhibition (Mus musculus [15]): Active; Drug uptake [18]: Active; Activity (Rattus norvegicus [19]): inactive; inhibition (Mus musculus [20]): inactive; inhibition [21]: inactive; Activity (Rattus norvegicus [22]): Active; Activity (Baboon): 26 - 36%; Activity (Rattus norvegicus [24]): 0%
–	CC(C)(C)/[N+]([O-])=C/c1ccc(C(F)(F)F)cc1	Active	Active	–	–	–	–	–	–	–	Activity (Rattus norvegicus [27]): 804%
inactive	CC(C)(C)/[N+]([O-])=C/c1ccccc1S(=O)(=O)[O-].[Na+]	–	–	inactive	inactive	inactive	inactive	inactive	inactive	inactive	Activity (Mus musculus [28]): 84.64%
–	CC(C)(C)/[N+]([O-])=C/c1ccc(F)cc1	Active	Active	–	–	–	–	–	–	–	–
